Entries after “also recorded” stand apart in the source; their conditions may differ. Where two headings read alike, the source gives them in different places.
Assays:
[1] = test system: NSCLC with EGFR Exon20ins disease; details: monotherapy, subjects with EGFR Exon20ins disease after prior platinum-based chemotherapy; cited from earlier work
[2] = test system: esophageal cancer (EC) expressing EGFR and/or cMet; format: in vivo
Source text: Approximately 30 participants with any expression level of EGFR, cMet, or both proteins are enrolled in each of the Phase 2a cohort. […] Additional enrollment in Phase 2a cohorts may be allowed to achieve this minimal enrollment.
This is an open-label, multicenter, multi-arm Phase 2 interventional study in participants with previously treated advanced or unresectable GC or EC who are 20 years or older (or the legal age of consent in the jurisdiction in which the study is taking place). Japanese participants with gastric/GEJ or EC who express varying degrees of EGFR, cMet, or both as determined by IHC locally or centrally are enrolled in the GC cohort or EC cohort.
The baseline disease assessments are performed as close as possible to the start of treatment, but no more than 28 days prior to the first dose. Subsequent assessments are performed at 6 weeks (+1 week) after initiation of study treatment administration, then every 6 weeks (±1 week) for the first 12 months and then every 12 weeks (±1 week) until objective radiographic disease progression. Timing for each disease assessment is relative to the first dose of study treatment administration, regardless of dose modifications, and continues until disease progression. Any other site at which new disease is suspected is also imaged.
The primary efficacy measure is ORR. Objective response rate is defined as the proportion of participants who achieve either CR or PR, determined by investigator assessment using RECIST Version 1.1. Confirmation of investigator-assessed ORR may be performed through IRC in the Phase 2b.
Disease Control Rate: Disease control rate is defined as the percentage of participants achieving complete or partial response or stable disease for at least 6 weeks as defined by RECIST Version1.1. The DCR and its 95% CI with Clopper-Pearson method are also calculated.
Next, response to treatment was evaluated. The “All Treated” patient population were patients who received at least 1 dose of study treatment.

[3] = all treated population, IHC 1+, N=1, 1,050/1,400 mg IV, number of participants
[4] = all treated population, IHC 2+, N=10, 1,050/1,400 mg IV
[5] = all treated population, IHC 2+, N=10, 1,050/1,400 mg IV, number of participants
[6] = all treated population, IHC 3+, N=17, 1,050/1,400 mg IV
[7] = all treated population, IHC 3+, N=17, 1,050/1,400 mg IV, number of participants
[8] = all treated population, IHC NA, N=2, 1,050/1,400 mg IV, number of participants
[9] = all treated population, Total, N=30, 1,050/1,400 mg IV
[10] = all treated population, Total, N=30, 1,050/1,400 mg IV, number of participants
[11] = response evaluable population, IHC 1+, N=1, 1,050/1,400 mg IV, number of participants
[12] = response evaluable population, IHC 2+, N=10, 1,050/1,400 mg IV
[13] = response evaluable population, IHC 2+, N=10, 1,050/1,400 mg IV, number of participants
[14] = response evaluable population, IHC 3+, N=17, 1,050/1,400 mg IV
[15] = response evaluable population, IHC 3+, N=17, 1,050/1,400 mg IV, number of participants
[16] = response evaluable population, Total, N=28, 1,050/1,400 mg IV
[17] = response evaluable population, Total, N=28, 1,050/1,400 mg IV, number of participants

amivantamab
overall response rate [1]: 41% | best overall response, per patient ([2]; 3 patients treated with 1750 mg IV): One patient had stable disease; also recorded: one had partial response; also recorded: one had progressing disease | Disease control rate (CR + PR + SD) ([2]; all treated population, IHC 1+, N=1, 1,050/1,400 mg IV): (100.0%) | Complete response (CR) [2, 3]: 0 | Disease control rate (CR + PR + SD) [2, 3]: 1 | Not Evaluable (NE) [2, 3]: 0 | Objective response rate (CR + PR) [2, 3]: 0 | Partial response (PR) [2, 3]: 0 | Progressive Disease (PD) [2, 3]: 0 | Disease control rate (CR + PR + SD) [2, 4]: (70.0%) | Objective response rate (CR + PR) [2, 4]: (10.0%) | Partial response (PR) [2, 4]: (10.0%) | Progressive Disease (PD) [2, 4]: (30.0%) | Complete response (CR) [2, 5]: 0 | Disease control rate (CR + PR + SD) [2, 5]: 7 | Not Evaluable (NE) [2, 5]: 0 | Objective response rate (CR + PR) [2, 5]: 1 | Partial response (PR) [2, 5]: 1 | Progressive Disease (PD) [2, 5]: 3 | Disease control rate (CR + PR + SD) [2, 6]: (64.7%) | Objective response rate (CR + PR) [2, 6]: (11.8%) | Partial response (PR) [2, 6]: (11.8%) | Progressive Disease (PD) [2, 6]: (35.3%) | Complete response (CR) [2, 7]: 0 | Disease control rate (CR + PR + SD) [2, 7]: 11 | Not Evaluable (NE) [2, 7]: 0 | Objective response rate (CR + PR) [2, 7]: 2 | Partial response (PR) [2, 7]: 2 | Progressive Disease (PD) [2, 7]: 6 | Disease control rate (CR + PR + SD) ([2]; all treated population, IHC NA, N=2, 1,050/1,400 mg IV): (100.0%) | Complete response (CR) [2, 8]: 0 | Disease control rate (CR + PR + SD) [2, 8]: 2 | Not Evaluable (NE) [2, 8]: 0 | Objective response rate (CR + PR) [2, 8]: 0 | Partial response (PR) [2, 8]: 0 | Progressive Disease (PD) [2, 8]: 0 | Disease control rate (CR + PR + SD) [2, 9]: (70.0%) | Objective response rate (CR + PR) [2, 9]: (10.0%) | Partial response (PR) [2, 9]: (10.0%) | Progressive Disease (PD) [2, 9]: (30.0%) | Complete response (CR) [2, 10]: 0 | Disease control rate (CR + PR + SD) [2, 10]: 21 | Not Evaluable (NE) [2, 10]: 0 | Objective response rate (CR + PR) [2, 10]: 3 | Partial response (PR) [2, 10]: 3 | Progressive Disease (PD) [2, 10]: 9 | Disease control rate (CR + PR + SD) ([2]; response evaluable population, IHC 1+, N=1, 1,050/1,400 mg IV): (100.0%) | Complete response (CR) [2, 11]: 0 | Disease control rate (CR + PR + SD) [2, 11]: 1 | Not Evaluable (NE) [2, 11]: 0 | Objective response rate (CR + PR) [2, 11]: 0 | Partial response (PR) [2, 11]: 0 | Progressive Disease (PD) [2, 11]: 0 | Disease control rate (CR + PR + SD) [2, 12]: (70.0%) | Objective response rate (CR + PR) [2, 12]: (10.0%) | Partial response (PR) [2, 12]: (10.0%) | Progressive Disease (PD) [2, 12]: (30.0%) | Complete response (CR) [2, 13]: 0 | Disease control rate (CR + PR + SD) [2, 13]: 7 | Not Evaluable (NE) [2, 13]: 0 | Objective response rate (CR + PR) [2, 13]: 1 | Partial response (PR) [2, 13]: 1 | Progressive Disease (PD) [2, 13]: 3 | Disease control rate (CR + PR + SD) [2, 14]: (64.7%) | Objective response rate (CR + PR) [2, 14]: (11.8%) | Partial response (PR) [2, 14]: (11.8%) | Progressive Disease (PD) [2, 14]: (35.3%) | Complete response (CR) [2, 15]: 0 | Disease control rate (CR + PR + SD) [2, 15]: 11 | Not Evaluable (NE) [2, 15]: 0 | Objective response rate (CR + PR) [2, 15]: 2 | Partial response (PR) [2, 15]: 2 | Progressive Disease (PD) [2, 15]: 6 | Objective response rate (CR + PR) [2, 16]: (10.7%) | Partial response (PR) [2, 16]: (10.7%) | Progressive Disease (PD) [2, 16]: (32.1%) | Complete response (CR) [2, 17]: 0 | Disease control rate (CR + PR + SD) [2, 17]: 19 | Not Evaluable (NE) [2, 17]: 0 | Objective response rate (CR + PR) [2, 17]: 3 | Partial response (PR) [2, 17]: 3 | Progressive Disease (PD) [2, 17]: 9

From patent publication US20240317866A1, “Use of Anti-EGFR/Anti-Met Antibody to Treat Gastric or Esophageal Cancer” (Janssen Biotech, Inc., priority 2022, published 2024)
